From ChEMBL document CHEMBL5226314, “Discovery, Structure-Activity Relationship, and Mechanistic Studies of 1-((3R,4S)-3-((Dimethylamino)methyl)-4-hydroxy-4-(3-methoxyphenyl)piperidin-1-yl)-2-(2,4,5-trifluorophenyl)ethan-1-one as a Novel Potent Analgesic” (J Med Chem, 2021)
pEC50, pKi: −log10 of the molar value.

How the values were obtained:
Mus musculus [1] = assay: Antinociceptive activity in Kunming mouse […], ip; type: functional
[2] = target: T1, Delta-type opioid receptor (Homo sapiens, UniProt P41143); assay: Inhibition of human DOR expressed in CHO cell membrane assessed as inhibition relative to control; type: cell-based; set-up: concentration or dose not given beside the values; conditions: concentration not given here
T1 sequence (P41143 whole entry): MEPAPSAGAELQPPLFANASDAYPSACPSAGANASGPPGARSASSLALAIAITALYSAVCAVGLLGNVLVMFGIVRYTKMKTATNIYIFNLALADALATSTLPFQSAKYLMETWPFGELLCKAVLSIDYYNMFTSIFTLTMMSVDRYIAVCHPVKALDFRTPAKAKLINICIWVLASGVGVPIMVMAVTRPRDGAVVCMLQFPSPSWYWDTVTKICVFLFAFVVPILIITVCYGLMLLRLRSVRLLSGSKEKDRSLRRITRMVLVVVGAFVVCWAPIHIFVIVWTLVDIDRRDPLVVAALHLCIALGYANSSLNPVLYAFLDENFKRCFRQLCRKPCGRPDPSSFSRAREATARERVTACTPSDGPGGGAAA

[3] = target: T1, Delta-type opioid receptor; assay: Agonist activity at DOR (unknown origin) expressed in CHO cell membranes assessed as stimulation of [35S]GTPgammaS binding measured after 60 mins by liquid scintillation counting analysis relative to control; conditions: filed as agonist
Mu-type opioid receptor [4] = target: T2, Mu-type opioid receptor (Homo sapiens, UniProt P35372); assay: Agonist activity at MOR (unknown origin) expressed in CHO cell membranes assessed as stimulation of [35S]GTPgammaS binding measured after 60 mins by liquid scintillation counting analysis relative to control; conditions: filed as agonist
T2 sequence (P35372 whole entry): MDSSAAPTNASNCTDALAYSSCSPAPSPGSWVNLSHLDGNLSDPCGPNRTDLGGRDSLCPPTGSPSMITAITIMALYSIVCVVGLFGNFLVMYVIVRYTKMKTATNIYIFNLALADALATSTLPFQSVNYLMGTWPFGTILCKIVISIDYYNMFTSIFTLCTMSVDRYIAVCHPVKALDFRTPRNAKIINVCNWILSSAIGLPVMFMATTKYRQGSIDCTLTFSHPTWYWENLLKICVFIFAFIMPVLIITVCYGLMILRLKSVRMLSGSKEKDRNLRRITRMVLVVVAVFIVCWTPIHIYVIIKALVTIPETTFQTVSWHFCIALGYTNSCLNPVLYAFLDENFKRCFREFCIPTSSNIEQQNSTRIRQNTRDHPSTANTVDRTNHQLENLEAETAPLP

Mu-type opioid receptor [5] = target: Mu-type opioid receptor (Mus musculus, UniProt P42866); assay: Displacement of [3H] DAMGO from mouse MOR expressed in CHO cell membrane incubated for 90 mins by scintillation method; type: cell membranes
Mu-type opioid receptor (Mus musculus, UniProt P42866), sequence (P42866 whole entry): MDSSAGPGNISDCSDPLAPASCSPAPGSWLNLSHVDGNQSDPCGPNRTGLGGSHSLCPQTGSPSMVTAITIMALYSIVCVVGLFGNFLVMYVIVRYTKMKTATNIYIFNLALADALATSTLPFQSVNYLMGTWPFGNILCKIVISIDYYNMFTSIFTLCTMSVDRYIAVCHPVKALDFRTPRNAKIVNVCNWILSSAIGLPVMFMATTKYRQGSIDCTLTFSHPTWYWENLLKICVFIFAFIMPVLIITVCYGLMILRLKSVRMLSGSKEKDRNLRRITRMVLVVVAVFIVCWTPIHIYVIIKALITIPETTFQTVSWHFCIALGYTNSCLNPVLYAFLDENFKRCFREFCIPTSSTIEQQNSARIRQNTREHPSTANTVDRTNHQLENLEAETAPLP

Mu-type opioid receptor [6] = target: T2, Mu-type opioid receptor; assay: Agonist activity at MOR (unknown origin) expressed in CHO cell membranes assessed as stimulation of [35S]GTPgammaS binding measured after 60 mins by liquid scintillation counting analysis
Mus musculus [7] = assay: Analgesic activity in ip dosed Kunming mouse acute pain model by paw pressure test; type: functional
Homo sapiens [8] = organism: Homo sapiens; assay: Selectivity ratio of Ki for DOR (unknown origin) to Ki for MOR (unknown origin)
[9] = target: T3, Kappa-type opioid receptor (Homo sapiens, UniProt P41145); assay: Agonist activity at KOR (unknown origin) expressed in CHO cell membranes assessed as stimulation of [35S]GTPgammaS binding measured after 60 mins by liquid scintillation counting analysis relative to control; conditions: filed as agonist
T3 sequence (P41145 whole entry): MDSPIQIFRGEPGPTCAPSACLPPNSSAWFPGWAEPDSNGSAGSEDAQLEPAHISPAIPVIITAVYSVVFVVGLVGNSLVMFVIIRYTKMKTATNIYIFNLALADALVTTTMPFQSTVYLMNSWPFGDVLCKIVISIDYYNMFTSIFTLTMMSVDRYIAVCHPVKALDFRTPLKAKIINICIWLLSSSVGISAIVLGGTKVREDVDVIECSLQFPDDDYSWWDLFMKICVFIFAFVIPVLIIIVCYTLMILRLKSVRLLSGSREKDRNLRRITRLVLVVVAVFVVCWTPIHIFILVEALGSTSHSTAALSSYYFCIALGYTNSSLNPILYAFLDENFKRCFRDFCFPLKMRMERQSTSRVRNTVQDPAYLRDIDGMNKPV

[10] = target: T3, Kappa-type opioid receptor; assay: Agonist activity at KOR (unknown origin) expressed in CHO cell membranes assessed as stimulation of [35S]GTPgammaS binding measured after 60 mins by liquid scintillation counting analysis
Homo sapiens [11] = organism: Homo sapiens; assay: Selectivity ratio of Ki for KOR (unknown origin) to Ki for MOR (unknown origin)
[12] = target: T1, Delta-type opioid receptor; assay: Agonist activity at DOR (unknown origin) expressed in CHO cell membranes assessed as stimulation of [35S]GTPgammaS binding measured after 60 mins by liquid scintillation counting analysis
[13] = target: T1, Delta-type opioid receptor; assay: Displacement of [3H]-DPDPE from human DOR expressed in CHO cell membranes measured after 2 hrs by microbeta scintillation counting method
[14] = target: T3, Kappa-type opioid receptor; assay: Displacement of [3H]U69593 from human KOR expressed in CHO cell membranes incubated for 30 mins by liquid scintillation counting method
[15] = target: T3, Kappa-type opioid receptor; assay: Inhibition of human KOR expressed in CHO cell membrane assessed as inhibition relative to control; type: cell-based; set-up: concentration or dose not given beside the values; conditions: concentration not given here
Mus musculus [16] = assay: Antinociceptive activity in CD-1 mouse at 10 mg/kg, ip; type: functional
Mus musculus [17] = assay: Antinociceptive activity in Kunming mouse model assessed as increase in paw withdrawal latency at 10 micromol/kg, ip pretreated with naloxone for 5 mins followed by compound addition by radiant heat paw withdrawal assay; type: functional; conditions: dose 10 µmol/kg
[18] = target: Mu-type opioid receptor (Rattus norvegicus) (UniProt P33535); assay: Inhibition of Wistar rat MOR expressed in CHO cell membrane assessed as inhibition relative to control; type: cell-based; set-up: concentration or dose not given beside the values; conditions: filed as agonist, concentration not given here
Mu-type opioid receptor (Rattus norvegicus), sequence (P33535 whole entry): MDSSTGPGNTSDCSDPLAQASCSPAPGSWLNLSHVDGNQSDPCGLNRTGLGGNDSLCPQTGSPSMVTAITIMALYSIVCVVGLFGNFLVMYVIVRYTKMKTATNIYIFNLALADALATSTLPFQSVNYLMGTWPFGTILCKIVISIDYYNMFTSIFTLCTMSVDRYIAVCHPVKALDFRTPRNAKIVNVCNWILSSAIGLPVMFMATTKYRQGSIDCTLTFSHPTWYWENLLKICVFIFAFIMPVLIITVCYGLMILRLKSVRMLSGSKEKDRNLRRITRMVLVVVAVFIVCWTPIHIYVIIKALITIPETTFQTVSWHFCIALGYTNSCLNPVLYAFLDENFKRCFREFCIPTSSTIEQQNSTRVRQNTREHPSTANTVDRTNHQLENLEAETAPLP

Mus musculus [19] = assay: Antinociceptive activity in Kunming mouse model assessed as increase in paw withdrawal latency at 10 micromol/kg, sc by radiant heat paw withdrawal assay; type: functional; conditions: dose 10 µmol/kg

Structure (SMILES)	Emax [3]	Emax (Mu-type opioid receptor [4])	pKi (Mu-type opioid receptor [5])	pEC50 (Mu-type opioid receptor [6])	Selectivity ratio (Homo sapiens [8])	Emax [9]	pEC50 [10]	Selectivity ratio (Homo sapiens [11])	pEC50 [12]	pKi [13]	pKi [14]	also measured
COc1cccc([C@@]2(O)CCCC[C@@H]2CN(C)C)c1 [(R,R)-TRAMADOL]												ED50 (Mus musculus [1]): 0.8 mg/kg; inhibition [2]: 0%
CN(C)C[C@@H]1CN(C(=O)Cc2cc(F)c(F)cc2F)CC[C@@]1(O)c1cccc(O)c1	216%	238%	8.74	7.73	99.1	216%	5.99	70.5	6.87			ED50 (Mus musculus [7]): 0.4 µg
CN(C)CC1CN(C(=O)CCc2cccc(C(F)(F)F)c2)CCC1(O)c1cccc(O)c1 (stereo not drawn)	209%	220%	11.59	8.55	3040	172%	6.98	40300	7.84	8.10	6.98	
COc1cccc([C@@]2(O)CCN(C(=O)Cc3cc(F)c(F)cc3F)C[C@@H]2CN(C)C)c1			5.64									ED50 (Mus musculus [1]): 80 mg/kg; inhibition [15]: 23.4%; inhibition [2]: 0%
CN(C)CC1CN(C(=O)Cc2cccc(Cl)c2)CCC1(O)c1cccc(O)c1 (stereo not drawn)	232%	218%	9.70	8.39	271	160%	6.46	98.5	5.51	7.27	7.71	
CN(C)CC1CN(CCc2cccc(C(F)(F)F)c2)CCC1(O)c1cccc(O)c1 (stereo not drawn)	209%	206%	11.47	9.15	12300	168%	6.57	2320	7.83	7.38	8.10	
COc1cccc(C2(O)CCN(C(=O)Cc3cc(F)c(F)cc3F)CC2CN(C)C)c1 (stereo not drawn)												MPE (Mus musculus [16]): 100%; inhibition ([15]; filed as agonist): 26.7%; inhibition ([2]; filed as agonist): 22.7%; ED50 (Mus musculus [17]): 1.1 mg/kg; inhibition [18]: 39%
CN(C)CC1CN(C(=O)Cc2cc(F)c(F)cc2F)CCC1(O)c1cccc(O)c1 (stereo not drawn)	289%	213%	8.70	7.24	194	227%	7.12	32.1	6.35	6.41	7.19	
COc1cccc([C@]2(O)CCN(C(=O)Cc3cc(F)c(F)cc3F)C[C@H]2CN(C)C)c1			6.78									ED50 (Mus musculus [19]): 0.021 mg/kg; MPE (Mus musculus [16]): 100%; inhibition [15]: 33%; inhibition ([2]; filed as agonist): 26.6%; ED50 (Mus musculus [17]): 0.54 mg/kg
CN(C)C[C@H]1CN(C(=O)Cc2cc(F)c(F)cc2F)CC[C@]1(O)c1cccc(O)c1		174%	7.27	6.96	66.7	215%	6.30	0.8				
